Test results as given in patent US20030114666A1, “Antibacterial agents” (priority 2001, published 2003).
≈ marks a conversion by molar mass, not a printed value. Counter-ions that a name gives are not always drawn. Like-named read-outs stand apart in the source and are kept apart here.

How the values were obtained:
S. aureus UC-76 = test: Test D cross resistance antibacterial assay (MIC); type: cell-based; conditions: Staphylococcus aureus, UC76; wild type sensitive laboratory strain; read-out: Minimum Inhibitory Concentrations S. aureus UC-76
Description: (§1) Test D-Cross Resistance Antibacterial Assay
(§2) The compounds of the present invention were tested against an assortment of ciprofloxacin resistant E. coli and S. aureus organisms described below using standard microtitration techniques (Cohen, et al., Antimicrob. Agents Chemother., 1985;28:766; Heifetz, et al., Antimicrob. Agents Chemother., 1974;6:124). […].
S. aureus UC-76: Typical sensitive laboratory strain (Wild type).

N. gonorrhoeae 2637 = test: Test D cross resistance antibacterial assay (MIC); type: cell-based, Neisseria gonorrhoeae; conditions: Neisseria gonorrhoeae, 2637; parent strain, derivative of MS11; read-out: Minimum Inhibitory Concentrations N. g. 2637
Description: as §1, §2
N. gonorrhoeae 2637 (N.g. 2637) is a derivative of Neisseria gonorrhoeae MS11 containing a TAC-LAC recA to allow for control of homologous recombination [Tonjum T. et al. Molecular Microbiology 1995, 16, 451-64].

S. aureus 29213 = test: Test A antibacterial assay, standard microtitration (MIC); type: cell-based
Description: (§3) Test A-Antibacterial Assay
(§4) The compounds of the present invention were tested against an assortment of Gram-negative and Gram-positive organisms using standard microtitration techniques (Cohen, et al., Antimicrob. Agents Chemother., 1985;28:766; Heifetz, et al., Antimicrob. Agents Chemother:, 1974;6:124). […]

E. faecalis RB1 = test: as above; type: cell-based; conditions: Enterococcus faecalis
Description: as §3, §4

E. coli B90 = test: as above; type: cell-based; conditions: Escherichia coli
Description: as §3, §4

E. coli Tol C = test: as above; type: cell-based; conditions: Escherichia coli, read-out: Minimum Inhibitory Concentrations E. coli Tol C
Description: as §3, §4

S. pyogenes C203 = test: as above; type: cell-based; conditions: Streptococcus pyogenes
Description: as §3, §4

E. coli MC 4100 = test: as above; type: cell-based; conditions: Escherichia coli
Description: as §3, §4

S. aureus 2558 = test: Test D cross resistance antibacterial assay (MIC); type: cell-based; conditions: relative to MIC against S. aureus UC-76
Description: as §1, §2
S. aureus 2558: Isogenic to S. aureus 2554, with point mutation at position 84 of gyrA subunit.

N. gonorrhoeae 2693 = test: Test D cross resistance antibacterial assay (MIC); type: cell-based, Neisseria gonorrhoeae; conditions: relative to MIC against N. g. 2637
Description: as §1, §2
N. gonorrhoeae 2693 (N.g. 2693): Isogenic to N. gonorrhoeae 2709 containing parC QRDR mutations [P88S and E91K].

S. aureus 2554 = test: Test D cross resistance antibacterial assay (MIC); type: cell-based; conditions: relative to MIC against S. aureus UC-76
Description: as §1, §2
S. aureus 2554: Isogenic to S. aureus 2552, with point mutation at position 80 of grlA subunit.

S. pyogenes = test: Test C in vivo activity, median protective dose in mice given lethal systemic infections; conditions: PO, lethal systemic infection with S. pyogenes
N. gonorrhoeae 2709 = test: Test D cross resistance antibacterial assay (MIC); type: cell-based, Neisseria gonorrhoeae; conditions: for MIC: Neisseria gonorrhoeae, 2709, read-out: Minimum Inhibitory Concentrations N. g. 2709; for MIC fold increase N. g. 2709 (in parentheses): relative to MIC against N. g. 2637
Description: as §1, §2
N. gonorrhoeae 2709 (N.g. 2709): Isogenic to N. gonorrhoeae 2637 contains gyrA quinolone-resistant determining region (QRDR) mutations (S91F D95G).

S. aureus 2552 = test: Test D cross resistance antibacterial assay (MIC); type: cell-based; conditions: for MIC: Staphylococcus aureus, 2552, upregulated norA pump, read-out: Minimum Inhibitory Concentrations S. aureus 2552; for MIC fold increase S. aureus 2552 (in parentheses): relative to MIC against S. aureus UC-76
Description: as §1, §2

E. coli gyrase = E. coli gyrase (Escherichia coli, UniProt P0AES4+P0AES6); test: biochemical; conditions: supercoiling of relaxed pBR322, 30 minutes at 37° C.
Chain of E. coli gyrase (P0AES4 whole entry, one chain of several): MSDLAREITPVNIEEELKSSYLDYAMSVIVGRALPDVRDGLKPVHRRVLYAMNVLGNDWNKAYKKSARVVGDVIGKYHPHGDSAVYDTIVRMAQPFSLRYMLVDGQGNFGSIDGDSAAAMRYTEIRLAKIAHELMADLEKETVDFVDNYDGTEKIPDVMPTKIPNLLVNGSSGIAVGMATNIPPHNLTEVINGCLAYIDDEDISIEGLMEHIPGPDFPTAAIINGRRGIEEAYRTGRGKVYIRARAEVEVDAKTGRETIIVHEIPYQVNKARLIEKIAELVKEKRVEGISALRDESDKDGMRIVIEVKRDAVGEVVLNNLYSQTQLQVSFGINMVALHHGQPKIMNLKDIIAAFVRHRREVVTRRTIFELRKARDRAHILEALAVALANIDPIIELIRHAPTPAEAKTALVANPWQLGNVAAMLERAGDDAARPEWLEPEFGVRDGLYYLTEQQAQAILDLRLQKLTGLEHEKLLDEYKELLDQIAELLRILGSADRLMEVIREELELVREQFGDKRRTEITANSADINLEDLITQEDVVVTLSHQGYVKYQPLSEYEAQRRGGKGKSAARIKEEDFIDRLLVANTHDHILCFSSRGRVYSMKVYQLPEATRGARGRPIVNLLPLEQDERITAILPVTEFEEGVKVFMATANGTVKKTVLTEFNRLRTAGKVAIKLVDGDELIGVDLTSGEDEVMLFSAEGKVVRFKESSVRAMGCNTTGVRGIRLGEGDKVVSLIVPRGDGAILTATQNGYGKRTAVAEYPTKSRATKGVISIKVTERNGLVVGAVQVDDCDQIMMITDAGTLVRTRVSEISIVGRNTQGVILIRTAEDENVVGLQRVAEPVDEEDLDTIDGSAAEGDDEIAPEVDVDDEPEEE

[1] = Gram positive, E. faecalis RB1, read-out: Minimum Inhibitory Concentrations E. faecalis RB1
[2] = Gram negative, E. coli B90, read-out: Minimum Inhibitory Concentrations E. coli B90
[3] = Gram positive, S. pyogenes C203, read-out: Minimum Inhibitory Concentrations S. pyogenes C203
[4] = MC4100, Gram negative, E. coli MC 4100, read-out: Minimum Inhibitory Concentrations E. coli MC 4100

SMILES | MIC (S. aureus UC-76) [µg/mL] | MIC (N. gonorrhoeae 2637) [µg/mL] | MIC (E. faecalis RB1; [1]) [µg/mL] | MIC (E. coli B90; [2]) [µg/mL] | MIC (E. coli Tol C) [µg/mL] | MIC (S. pyogenes C203; [3]) [µg/mL] | MIC (E. coli MC 4100; [4]) [µg/mL] | MIC fold increase S. aureus 2558 (in parentheses) (S. aureus 2558) | MIC fold increase N. g. 2693 (in parentheses) (N. gonorrhoeae 2693) | MIC fold increase S. aureus 2554 (in parentheses) (S. aureus 2554) | PD50 (S. pyogenes) [mg/kg] | MIC (N. gonorrhoeae 2709) [µg/mL] | MIC fold increase N. g. 2709 (in parentheses) (N. gonorrhoeae 2709) | MIC (S. aureus 2552) [µg/mL] | MIC fold increase S. aureus 2552 (in parentheses) (S. aureus 2552) | IC50 (E. coli gyrase) [µM] | other results
CN[C@@H](C)[C@@H]1CCN(c2c(F)cc3c(=O)[nH]c(=O)n(C4CC4)c3c2C)C1 [Example 2, 1-Cyclopropyl-6-fluoro-8-methyl-7-[(R)-3-((S)-1-methylaminoethyl)pyrrolidin-1-yl]-1H-quinazolinedione] | 0.25 (≈ 0.694 µM) | 0.5 | 0.25 (≈ 0.694 µM) | 0.5 (≈ 1.39 µM) | 0.25 (≈ 0.694 µM) | 0.03 (≈ 0.0832 µM) | 8 (≈ 22.2 µM) | (4x) | (16x) | (2x) | 10.8 | 4 (≈ 11.1 µM) | (8x) | 0.5 (≈ 1.39 µM) | (2x) | 2.1 | MIC (S. aureus 29213; Staphylococcus aureus, Gram positive, S. aureus 29213, read-out: Minimum Inhibitory Concentrations S. aureus 29213): 0.5 µg/mL (≈ 1.39 µM)
CN[C@@H](C)[C@@H]1CCN(c2c(F)cc3c(=O)[nH]c(=O)n(C4CC4)c3c2OC)C1 [Example 3, 1-Cyclopropyl-6-fluoro-8-methoxy-7-[(R)-3-((S)-1-methylaminoethyl)pyrrolidin-1-yl]-1H-quinazolinedione] |  |  | 2 (≈ 5.31 µM) | 2 (≈ 5.31 µM) | 0.5 (≈ 1.33 µM) | 0.13 (≈ 0.345 µM) | 32 (≈ 85 µM) |  |  |  |  |  |  |  |  | 7 | melting point: 162 to 164 °C
Cc1c(N2CC[C@@H]([C@H](C)N)C2)c(F)cc2c(=O)[nH]c(=O)n(C3CC3)c12 [Example 4b, 7-[(R)-3-((S)-1-Aminoethyl)pyrrolidin-1-yl]-1-cyclopropyl-6-fluoro-8-methyl-1H-quinazolinedione Hydrochloride] | 0.13 | 0.25 |  |  | 0.13 |  |  | (8x) | (8x) | (2x) | 3.6 | 2 | (8x) | 0.5 | (4x) | 0.6 | MIC (S. aureus 29213; Staphylococcus aureus, 29213, read-out: Minimum Inhibitory Concentrations S. aureus 29213): 0.25 µg/mL; MIC (E. faecalis RB1; RB1, read-out: Minimum Inhibitory Concentrations E. faecalis RB1): 0.13 µg/mL; MIC (E. coli B90; B90, read-out: Minimum Inhibitory Concentrations E. coli B90): 0.13 µg/mL; MIC (S. pyogenes C203; C203, read-out: Minimum Inhibitory Concentrations S. pyogenes C203): 0.015 µg/mL; MIC (E. coli MC 4100; MC4100, read-out: Minimum Inhibitory Concentrations E. coli MC 4100): 4 µg/mL
